According to patent publication US20250263404A1, “AMINOPYRIDINES AS ACTIVATORS OF PI3 KINASE” (UCL Business Ltd, priority 2021, published 2025):

What was measured:
ATM = molecular target: T1, ATM (Homo sapiens, UniProt Q13315); test: ATM kinase assay (Phos-tag gel); assay type: biochemical; conditions: 200 μM 1938
T1 construct: made in house
Method: 133 protein kinases and 7 lipid kinases were counterscreened, with […] used at 1 μM, using the Adapta, Lantha and Z-LYTE assays (SelectScreen Kinase Profiling Service; Thermofisher—experimental details of these assays can be found here: https://www.thermofisher.com/uk/en/home/industrial/pharma-biopharma/drug-discovery-development/target-and-lead-identification-and-validation/kinasebiology/kinase-activity-assays.html. The tree representation in KinMap generated courtesy of Cell Signaling Technology, Inc. (www.cellsignal.com). mTORC1 (mTOR/RAPTOR/LST8) protein complex and ATM kinase and substrates were produced as previously described (Anandapadamanaban, M. et al. Science (New York, NY 366, 203-210 (2019); Baretic, D. et al. Sci Adv 3, e1700933 (2017). Screening of 1938 was conducted using SuperSep Phos-Tag 50 μmol/l 100×100×6.6 mm 17-well (192-18001/199-18011) gels. For ATM assays, 100 nM ATM was incubated for 30 min at 30° C. with 5 μM GST-p53 and 1 mM ATP, in the absence or presence of 200 μM 1938 in ATM Kinase Buffer (50 mM HEPES pH 7.5, 100 mM NaCl, 10% glycerol, 2 mM […], 5 mM MgCl2). […] Gels were then stained using InstantBlue™ Coomassie stain, and then quantified using BioRad Image Lab Software. […]

[1] = tested on: PI3Kα-WT and PI3Kα-KO MEFs; test: CellTiter-Glo ATP content in MEFs; assay type: cell-based, mouse
Method: A role for PI3Kα in activation of anabolic metabolism, cell cycle progression and cell proliferation is well-established.
MEFs were seeded at 5000 cells per well in 96-well plates in DMEM supplemented with 10% FBS and 1% P/S, and allowed to attach overnight. The next day, cells were serum starved for 4 h prior to compound treatment in fresh serum-free DMEM. Compounds solubilised in DMSO were diluted 1:2 in a 12-point concentration response curve in DMSO. Intermediate plates were prepared by transferring 4 μl of compounds in DMSO into 96 μl of serum-free DMEM media. This was then used to treat cell plates by transferring 12.5 μl of solution from the intermediate plate into 87.5 μl of serum-free DMEM in the cell plates. […] Cell plates were incubated for 24 h, 48 h or 72 h at 37° C., 5% CO2, followed by determination of cell survival using the CellTiter-Glo® reagent according to manufacturer's instructions (Promega #G7571). Endpoint luminescence was measured using CLARIOstar (BMG). Compound data were analyzed using GraphPad Prism 8.

PIP3 levels in MEFs = test: PIP3 measurement by mass spectrometry in MEFs; assay type: cell-based, mouse
Method: FIG. 21. a, MEFs were stimulated for the indicated time points with 1938 (5 μM) or for 2 min with PDGF (20 ng/ml) or insulin (100 nM), followed by lipid extraction and PIP3 measurement by mass spectrometry. b, MEFs were stimulated for 2 min with increasing doses of 1938 or PDGF, followed by lipid extraction and PIP3 measurement by mass spectrometry. c, A549 cells were stimulated for 2 min with increasing doses of 1938 or insulin, or 10 ng/ml PDGF, followed by lipid extraction and PIP3 measurement by mass spectrometry.
Class I PI3Ks phosphorylate the PtdIns(4,5)P2 lipid in the plasma membrane to generate PtdIns(3,4,5)P3 (or PIP3), which can be converted to PtdIns(3,4)P2 by the action of 5-phosphatases. Treatment of MEFs (Mouse Embryonic Fibroblasts) with 1938 very rapidly (within 30 sec) led to increased PIP3 levels, as assessed by mass spectrometry, maxing at 5 min and maintained at this maximum level for up to 40 min (FIG. 21a). […] The observation of different levels of PIP3 induced by these growth factors is in line with the notion that PI3Kα is the sole mediator of PIP3 production downstream of insulin. This contrasts with PDGF, which activates both PI3Kα and PI3Kβ, with the latter PI3K isoform contributing substantially to acute PDGF-stimulated PIP3 generation in MEFs, correlating with the higher PIP3 levels induced by this agonist compared to insulin and 1938 (FIG. 21a). In the same experiment as in FIG. 21a, clear PI(3,4)P2 signal was detected in MEFs upon PDGF stimulation but not with 1938 (at 5 μM). This is consistent with a higher threshold for detection of PI(3,4)P2 compared to PIP3 by mass spectrometry (due primarily to background contamination, as discussed by Malek et al.), together with the relatively lower PI3K activation by 1938 compared to a high dose of PDGF, as is also illustrated by the experiments shown below.
These maximal 1938-induced PIP3 levels are below those required to give rise to sufficient PI(3,4)P2 to be detectable by mass spectrometry, a conclusion also supported by the observation that substantial levels of PIP3 induced by lower doses of PDGF (e.g. 0.5 ng/ml) were also not sufficient to give rise to levels of PI(3,4)P2 detectable by mass. […] A strong PIP3 response was also observed with insulin in these cells, with no PIP3 induced by PDGF, in line with the absence of this receptor in epithelial cells, including in A549.

T1 sequence (Q13315 whole entry, species assumed): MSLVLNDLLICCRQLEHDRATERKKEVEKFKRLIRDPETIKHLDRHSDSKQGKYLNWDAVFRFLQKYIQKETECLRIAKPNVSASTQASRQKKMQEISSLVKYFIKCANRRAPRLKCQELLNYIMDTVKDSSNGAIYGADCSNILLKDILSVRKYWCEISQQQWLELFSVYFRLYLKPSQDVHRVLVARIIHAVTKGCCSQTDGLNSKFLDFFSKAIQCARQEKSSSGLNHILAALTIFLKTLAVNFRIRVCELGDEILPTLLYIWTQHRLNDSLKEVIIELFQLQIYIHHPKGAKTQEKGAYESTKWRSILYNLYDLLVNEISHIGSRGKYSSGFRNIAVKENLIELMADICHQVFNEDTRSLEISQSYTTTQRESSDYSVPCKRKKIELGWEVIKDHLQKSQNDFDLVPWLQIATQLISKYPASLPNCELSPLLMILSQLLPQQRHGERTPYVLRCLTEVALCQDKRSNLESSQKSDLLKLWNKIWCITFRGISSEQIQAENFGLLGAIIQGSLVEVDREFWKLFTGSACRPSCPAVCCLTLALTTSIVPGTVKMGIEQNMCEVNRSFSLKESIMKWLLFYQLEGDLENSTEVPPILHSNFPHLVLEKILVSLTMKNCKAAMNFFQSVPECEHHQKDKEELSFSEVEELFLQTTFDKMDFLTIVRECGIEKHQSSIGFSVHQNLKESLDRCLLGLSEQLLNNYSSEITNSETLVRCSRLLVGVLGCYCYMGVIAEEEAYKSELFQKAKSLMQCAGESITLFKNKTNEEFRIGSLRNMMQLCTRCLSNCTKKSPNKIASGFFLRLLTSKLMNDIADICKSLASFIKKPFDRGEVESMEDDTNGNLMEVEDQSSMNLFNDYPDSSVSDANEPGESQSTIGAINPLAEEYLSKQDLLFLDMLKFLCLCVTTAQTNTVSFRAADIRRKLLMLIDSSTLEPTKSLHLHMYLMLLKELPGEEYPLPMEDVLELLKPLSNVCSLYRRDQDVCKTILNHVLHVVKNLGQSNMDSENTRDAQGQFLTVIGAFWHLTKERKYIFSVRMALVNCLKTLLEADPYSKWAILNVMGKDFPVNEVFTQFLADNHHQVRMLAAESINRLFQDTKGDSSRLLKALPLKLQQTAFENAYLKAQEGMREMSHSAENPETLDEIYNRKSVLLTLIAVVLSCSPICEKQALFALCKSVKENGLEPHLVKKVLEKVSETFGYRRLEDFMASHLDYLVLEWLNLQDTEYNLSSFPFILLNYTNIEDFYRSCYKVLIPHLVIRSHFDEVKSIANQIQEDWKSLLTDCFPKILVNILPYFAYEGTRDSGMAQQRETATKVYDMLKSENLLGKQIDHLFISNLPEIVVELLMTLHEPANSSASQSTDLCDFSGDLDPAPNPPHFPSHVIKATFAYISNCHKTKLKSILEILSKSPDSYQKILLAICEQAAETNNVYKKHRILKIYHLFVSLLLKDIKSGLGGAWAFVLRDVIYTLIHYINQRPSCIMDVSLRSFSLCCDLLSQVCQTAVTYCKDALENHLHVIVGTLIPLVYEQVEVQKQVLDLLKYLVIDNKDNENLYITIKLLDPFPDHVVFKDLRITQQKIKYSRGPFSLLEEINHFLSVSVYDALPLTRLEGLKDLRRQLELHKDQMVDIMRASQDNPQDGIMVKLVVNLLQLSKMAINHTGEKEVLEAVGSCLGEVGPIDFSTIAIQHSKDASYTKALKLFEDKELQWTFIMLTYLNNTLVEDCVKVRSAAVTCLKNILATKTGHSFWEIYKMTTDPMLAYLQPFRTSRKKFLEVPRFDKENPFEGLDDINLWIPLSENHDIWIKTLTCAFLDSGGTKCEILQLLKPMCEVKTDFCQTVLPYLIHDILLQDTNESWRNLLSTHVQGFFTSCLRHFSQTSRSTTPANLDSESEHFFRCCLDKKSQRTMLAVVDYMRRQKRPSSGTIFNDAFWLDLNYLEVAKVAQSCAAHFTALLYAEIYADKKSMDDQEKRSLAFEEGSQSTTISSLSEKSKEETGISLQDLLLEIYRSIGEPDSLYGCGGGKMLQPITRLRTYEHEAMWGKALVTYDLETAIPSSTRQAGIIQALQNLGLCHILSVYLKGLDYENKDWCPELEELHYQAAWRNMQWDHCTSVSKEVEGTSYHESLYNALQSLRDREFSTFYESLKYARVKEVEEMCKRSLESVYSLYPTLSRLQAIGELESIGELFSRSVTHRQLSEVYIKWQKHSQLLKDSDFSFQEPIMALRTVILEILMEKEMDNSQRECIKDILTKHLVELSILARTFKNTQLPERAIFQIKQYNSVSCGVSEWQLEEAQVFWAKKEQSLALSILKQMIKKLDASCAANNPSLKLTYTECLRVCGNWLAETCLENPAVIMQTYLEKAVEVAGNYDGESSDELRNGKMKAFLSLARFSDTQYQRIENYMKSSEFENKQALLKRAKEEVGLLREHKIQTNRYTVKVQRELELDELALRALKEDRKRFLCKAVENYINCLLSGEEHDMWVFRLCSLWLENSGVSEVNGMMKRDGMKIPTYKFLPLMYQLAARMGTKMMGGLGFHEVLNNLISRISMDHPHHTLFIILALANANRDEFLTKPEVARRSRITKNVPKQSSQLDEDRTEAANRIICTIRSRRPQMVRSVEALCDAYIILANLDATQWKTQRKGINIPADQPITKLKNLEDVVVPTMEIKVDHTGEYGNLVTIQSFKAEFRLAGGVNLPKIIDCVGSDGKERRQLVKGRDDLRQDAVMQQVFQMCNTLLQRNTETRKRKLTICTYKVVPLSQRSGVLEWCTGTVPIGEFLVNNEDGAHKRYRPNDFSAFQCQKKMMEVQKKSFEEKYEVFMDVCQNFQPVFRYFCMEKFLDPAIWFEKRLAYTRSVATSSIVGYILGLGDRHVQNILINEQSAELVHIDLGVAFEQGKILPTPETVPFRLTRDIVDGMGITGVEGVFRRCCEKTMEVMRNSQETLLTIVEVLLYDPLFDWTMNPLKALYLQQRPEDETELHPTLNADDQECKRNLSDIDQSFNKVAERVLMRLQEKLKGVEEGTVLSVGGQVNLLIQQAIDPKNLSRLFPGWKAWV

activity of ATM (ATM): did not affect | concentrations that decreased ATP levels (PI3Kα-independent effects) ([1]; 24 h incubation, PI3Kα-WT and PI3Kα-KO MEFs): > 7.5 µM | concentrations with non-PI3Kα-dependent effects ([1]; 48 h and 72 h incubation): ≥ 2 µM | EC50 (PIP3 levels in MEFs; Mus musculus, 2 min, fixed 2 min time point, read-out: EC50 of PIP3 induction): ~5000 nM
SMILES: CCN1CCN(c2ccc(Nc3cc(Nc4cccc5c4N(C(C)=O)CC5)ccn3)cc2)CC1 [Example 1938]
EC50 ([1]; Mus musculus, PI3Kα-WT MEFs, CellTiterGlo, read-out: EC50 of increase in metabolic activity (ATP content)): ~500 nM | concentration at which PIP3 induction plateaus (PIP3 levels in MEFs; 2 min): around 10 μM | duration of maximum PIP3 level (PIP3 levels in MEFs; 1938 5 μM): up to 40 min | time of maximum PIP3 level (PIP3 levels in MEFs; 1938 5 μM): 5 min | time to increased PIP3 levels (PIP3 levels in MEFs; 1938 5 μM): ≤ 30 s
